In the PolyMetriX glass transition set one finds glass transition temperature data, which are given here for 22 molecules.

`*C(=O)c1cc(C(=O)c2ccc3c(c2)C(=O)N(c2ccc(Oc4ccc(N5C(=O)c6ccc(*)cc6C5=O)cc4)cc2)C3=O)cc(C(C)(C)C)c1` (repeat unit) gave a glass transition temperature of 252.50 °C.

In turn, `*C(=O)c1ccc(Oc2ccc(Oc3ccc(C(=O)c4ccc5c(c4)C(=O)N(c4ccc(Oc6ccc(N7C(=O)c8ccc(*)cc8C7=O)cc6)cc4)C5=O)cc3)cc2)cc1` (repeat unit) gave a glass transition temperature of 220.00 °C.

In turn, `*CCCCCCCCCCCN1C(=O)c2ccc(-c3ccc(-c4ccc5c(c4)C(=O)N(*)C5=O)cc3)cc2C1=O` (repeat unit) showed a glass transition temperature of 89.00 °C.

Regarding `*CCCCCCCCN1C(=O)c2ccc(-c3ccc(-c4ccc5c(c4)C(=O)N(*)C5=O)cc3)cc2C1=O` (repeat unit), the glass transition temperature was 120.00 °C.

With `*CCCCCCn1ccc(-c2ccc(-c3ccn(*)n3)cc2)n1` (repeat unit), the glass transition temperature came out at 55.00 °C.

Turning to `*c1ccc(-c2cc(-c3ccc(OCCCCCC)cc3)cc(-c3ccc(-c4ccc5c(c4)C(CCCCCC)(CCCCCC)c4cc(*)ccc4-5)cc3)c2-c2ccc(OCCCCCC)cc2)cc1` (repeat unit), the glass transition temperature is 118.00 °C.

In turn, `*c1ccc(-c2cc(-c3ccc(OCCCCCCCCCCCC)cc3)cc(-c3ccc(-c4ccc5c(c4)C(CCCCCC)(CCCCCC)c4cc(*)ccc4-5)cc3)c2-c2ccc(OCCCCCCCCCCCC)cc2)cc1` (repeat unit) came in with a glass transition temperature of 79.00 °C.

On to `*c1ccc(-c2cc(CCCCCC)c(-c3ccc(-c4ccc5ccc6ccc(*)nc6c5n4)cc3)cc2CCCCCC)cc1` (repeat unit), for which the glass transition temperature stood at 190.00 °C.

`*c1ccc(-c2ccc3c(c2)C(CCCCCCCC)(CCCCCCCC)c2cc(*)ccc2-3)cc1` (repeat unit) yielded a glass transition temperature of 81.00 °C.

The molecule `*c1ccc(-c2cnc3cc4ncc(*)nc4cc3n2)cc1` (repeat unit) registered a glass transition temperature of 392.00 °C.

The molecule `*c1ccc(-c2nc3cc4nc(*)c(-c5ccccc5)nc4cc3nc2-c2ccccc2)cc1` (repeat unit) came in with a glass transition temperature of 395.00 °C.

In turn, `*c1ccc(-c2nc3ccc(-c4ccc5nc(*)c(-c6ccccc6)c(-c6ccccc6)c5c4)cc3c(-c3ccccc3)c2-c2ccccc2)cc1` (repeat unit) showed a glass transition temperature of 400.00 °C.

For the molecule `*c1ccc(-c2nnc(*)o2)c(OCC)c1` (repeat unit), the glass transition temperature is 231.00 °C.

Molecule `*c1ccc(-c2nnc(*)o2)c(OCCCCCCCCCC)c1` (repeat unit) gave a glass transition temperature of 165.00 °C.

Molecule `*c1ccc(-c2sc(-c3cc(CCCCCCCC)c(*)s3)cc2CCCCCCCC)cc1` (repeat unit) came in with a glass transition temperature of 50.40 °C.

With `*c1ccc(C(c2ccc(-c3nc4ccc(-c5ccc6nc(*)[nH]c6c5)cc4[nH]3)cc2)(C(F)(F)F)C(F)(F)F)cc1` (repeat unit), the glass transition temperature is 269.00 °C.

The molecule `*c1ccc(C(c2ccccc2)(c2ccc(-c3nc4ccc(-c5ccc6nc(*)oc6c5)cc4o3)cc2)C(F)(F)F)cc1` (repeat unit) came in with a glass transition temperature of 350.00 °C.

The molecule `*c1ccc([Si](c2ccccc2)(c2ccccc2)c2ccc(-c3nnc(-c4ccc(-c5nnc(*)o5)nc4)o3)cc2)cc1` (repeat unit) yielded a glass transition temperature of 272.00 °C.

As for `*c1ccc([Si](c2ccccc2)(c2ccccc2)c2ccc(-c3nnc(-c4ccc(-c5nnc(*)o5)o4)o3)cc2)cc1` (repeat unit), the glass transition temperature is 276.00 °C.

Molecule `*c1ccc([Si](c2ccccc2)(c2ccccc2)c2ccc(-c3nnc(-c4cccc(-c5nnc(*)o5)n4)o3)cc2)cc1` (repeat unit) came in with a glass transition temperature of 265.00 °C.

In turn, `*c1ccc([Si](c2ccccc2)(c2ccccc2)c2ccc(-c3nnc(-c4cncc(-c5nnc(*)o5)c4)o3)cc2)cc1` (repeat unit) came in with a glass transition temperature of 272.00 °C.

`*c1cccc(Cc2cccc(N3C(=O)c4ccc([Si](C)(C)c5ccc(-c6ccc([Si](C)(C)c7ccc8c(c7)C(=O)N(*)C8=O)cc6)cc5)cc4C3=O)c2)c1` (repeat unit) had a glass transition temperature of 285.00 °C.
